{"source": "paper PMC9604483", "about": "“Crystal Structure of CYP3A4 Complexed with Fluorol Identifies the Substrate Access Channel as a High-Affinity Ligand Binding Site” (International Journal of Molecular Sciences, 2022)", "key": {"[1]": {"target": "T1, WT CYP3A4 (Homo sapiens, UniProt P08684)", "T1 construct": "made in house", "T1 sequence (P08684 with tags, fused parts or gaps)": "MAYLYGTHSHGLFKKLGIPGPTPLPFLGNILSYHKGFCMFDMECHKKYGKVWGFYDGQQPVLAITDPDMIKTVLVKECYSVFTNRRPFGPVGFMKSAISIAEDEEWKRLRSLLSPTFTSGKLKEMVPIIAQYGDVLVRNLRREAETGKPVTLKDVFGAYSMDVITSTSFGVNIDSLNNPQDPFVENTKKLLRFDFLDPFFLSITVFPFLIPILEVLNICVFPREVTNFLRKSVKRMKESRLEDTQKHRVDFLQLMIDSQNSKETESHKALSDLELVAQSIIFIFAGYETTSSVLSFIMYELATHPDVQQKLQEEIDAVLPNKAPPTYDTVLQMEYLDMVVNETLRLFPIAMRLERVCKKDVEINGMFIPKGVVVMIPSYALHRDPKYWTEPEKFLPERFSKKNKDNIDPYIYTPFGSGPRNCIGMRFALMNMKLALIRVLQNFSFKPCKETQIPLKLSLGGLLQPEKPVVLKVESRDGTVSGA", "assay": "Equilibrium absorbance titrations of CYP3A4 with progesterone", "format": "binding"}, "[2]": {"target": "CYP3A4 (Homo sapiens, UniProt P08684)", "sequence (P08684 whole entry)": "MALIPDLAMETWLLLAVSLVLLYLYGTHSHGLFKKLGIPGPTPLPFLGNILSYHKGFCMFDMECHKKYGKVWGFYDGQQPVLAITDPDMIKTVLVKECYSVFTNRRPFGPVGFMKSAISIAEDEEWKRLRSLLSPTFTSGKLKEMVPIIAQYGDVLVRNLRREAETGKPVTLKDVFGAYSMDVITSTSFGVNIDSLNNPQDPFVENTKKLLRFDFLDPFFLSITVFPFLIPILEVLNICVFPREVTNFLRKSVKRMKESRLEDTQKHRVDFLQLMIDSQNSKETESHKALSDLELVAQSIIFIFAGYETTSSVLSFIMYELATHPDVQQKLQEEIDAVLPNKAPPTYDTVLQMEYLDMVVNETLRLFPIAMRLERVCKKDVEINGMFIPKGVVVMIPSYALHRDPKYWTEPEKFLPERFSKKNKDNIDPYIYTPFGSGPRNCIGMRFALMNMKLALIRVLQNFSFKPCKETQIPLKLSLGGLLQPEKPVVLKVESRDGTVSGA", "assay": "Progesterone binding to CYP3A4 (authors' estimate of Kd)", "protocol": "Equal amounts of DMSO were added to the protein solutions to avoid buffer-related changes in fluorol emission. Fluorescence changes were monitored with λex of 455 nm and a 495 nm cutoff emission filter. […] Kinetics were analyzed using the Igor Pro software (WaveMetrics, Oswego, OR, USA)."}, "[3]": {"target": "T2, T224A CYP3A4 (Homo sapiens, UniProt P08684, T224A)", "T2 construct": "made in house", "T2 sequence (P08684 with tags, fused parts or gaps T224A)": "as the sequence (P08684 with tags, fused parts or gaps) above, with T204A counted along it", "assay": "Equilibrium absorbance titrations of CYP3A4 with progesterone", "format": "binding"}}, "note": "Where two headings read alike, the source gives them in different places."}
{"smiles": "CC(=O)[C@H]1CC[C@H]2[C@@H]3CCC4=CC(=O)CC[C@]4(C)[C@H]3CC[C@]12C", "note": "[progesterone]", "values": [{"measurement": "S50 (concentration at half saturation)", "setting": "[1]; 2 μM WT CYP3A4, sigmoidal fitting", "result": "32 ± 2", "unit": "µM"}, {"measurement": "High-spin content in PRG-bound CYP3A4", "setting": "[1]; end of titration, WT", "result": 71, "unit": "%"}, {"measurement": "Kd", "setting": "[2]; human", "result": 45, "unit": "µM"}, {"measurement": "Kd", "setting": "[2]; our estimate, read-out: Kd, high-affinity site", "result": 5, "unit": "µM"}, {"measurement": "Hill coefficient (nH)", "setting": "[3]; 2 μM T224A CYP3A4", "result": 1.37}, {"measurement": "S50 (concentration at half saturation)", "setting": "[3]; 2 μM T224A CYP3A4, sigmoidal fitting", "result": "25 ± 4", "unit": "µM"}, {"measurement": "Decrease in the high-spin content on elimination of Thr224", "setting": "[3]; PRG-bound, T224A vs WT", "result": 9, "unit": "%"}, {"measurement": "High-spin content in PRG-bound CYP3A4", "setting": "[3]; end of titration, T224A", "result": 62, "unit": "%"}]}
